Patent US12441757B2, “Platform for screening NAD+ binding proteins in a cellular context” (OREGON HEALTH & SCIENCE UNIVERSITY, priority 2020, dated 2025)
Entries after “also recorded” stand apart in the source; their conditions may differ.

Columns and labels:
PARP-10 = target: T1, PARP-10 (Homo sapiens, UniProt Q53GL7); experiment: Competition labeling of PARP-10 by 2-ad-BAD; assay type: binding; conditions: for block of 2-ad-BAD labeling of PARP-10 by nucleotides: 150 μM nucleotide, 0.3 μM 2-ad-BAD; for dose-dependent block of 2-ad-BAD labeling of PARP-10: competitor dose series
T1 construct: Full length His6-PARP-1 and His6-SUMO-PARP-10 proteins we expressed and purified; His6 (N); SUMO (N); made in house
T1 sequence (Q53GL7 1-1025): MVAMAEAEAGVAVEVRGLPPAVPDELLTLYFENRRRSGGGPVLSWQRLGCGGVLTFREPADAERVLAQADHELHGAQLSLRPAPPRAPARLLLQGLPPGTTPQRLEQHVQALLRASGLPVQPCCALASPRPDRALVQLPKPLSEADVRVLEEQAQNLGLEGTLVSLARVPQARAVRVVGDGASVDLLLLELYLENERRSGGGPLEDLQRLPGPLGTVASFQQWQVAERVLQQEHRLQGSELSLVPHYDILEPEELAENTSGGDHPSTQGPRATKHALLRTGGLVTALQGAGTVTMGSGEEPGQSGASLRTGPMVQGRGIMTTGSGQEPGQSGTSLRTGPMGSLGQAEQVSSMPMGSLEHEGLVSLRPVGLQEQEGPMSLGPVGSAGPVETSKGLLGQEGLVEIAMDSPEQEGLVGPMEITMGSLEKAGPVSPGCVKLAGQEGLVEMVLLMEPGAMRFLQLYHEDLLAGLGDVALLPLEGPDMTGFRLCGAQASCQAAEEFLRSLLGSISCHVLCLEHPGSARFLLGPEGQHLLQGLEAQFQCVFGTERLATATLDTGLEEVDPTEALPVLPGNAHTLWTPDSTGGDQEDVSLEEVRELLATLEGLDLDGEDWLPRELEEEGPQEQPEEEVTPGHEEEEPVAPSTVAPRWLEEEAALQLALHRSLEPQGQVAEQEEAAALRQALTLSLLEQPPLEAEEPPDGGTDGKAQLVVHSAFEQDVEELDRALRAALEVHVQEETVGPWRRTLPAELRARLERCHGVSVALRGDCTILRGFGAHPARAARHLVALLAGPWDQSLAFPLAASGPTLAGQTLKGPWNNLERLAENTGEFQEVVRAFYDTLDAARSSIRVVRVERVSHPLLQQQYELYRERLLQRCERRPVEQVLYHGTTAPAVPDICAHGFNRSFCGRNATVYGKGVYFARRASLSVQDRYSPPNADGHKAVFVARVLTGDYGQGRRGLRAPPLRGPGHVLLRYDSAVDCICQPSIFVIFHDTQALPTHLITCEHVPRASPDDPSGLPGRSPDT
Description: (§1) FIG. 8. Densitometry analyses of FIG. 3A panels (A,B) comparing the inhibitory effect of nucleotides and (B) panels (C,D) comparing inhibitory effect of PARP inhibitors on PARP-1 and PARP-10 labelling by 2-ad-BAD. TAMRA in-gel fluorescence was normalized to Coomassie staining, except for PARP-1 NAD^+ treated samples where relative to control TAMRA signal is reported due to auto-PARylation induced molecular weight shift and therefore not detectable Coomassie signal at PARP-1 molecular weight of ˜110 kDa. Data are mean±SEM of 3 independent experiments.
(§2) Treatments. Recombinant PARP-1 (250 nM), PARP-10 (250 nM) or AK1 (500 nM; Novus Biologicals) were diluted in 100 mM NaCl, 50 mM HEPES [pH 7.4], 4 mM MgCl2, 0.2 mM TCEP. PARP-1 reactions also contained 10 μg/mL of activated calf thymus DNA (Sigma-Aldrich D4522), unless otherwise noted. In experiments reported in FIG. 2, the samples were treated with 0.1 μM 2-ad-BAD or ad-olaparib for 10 min. In competition experiments reported in FIG. 3 and Figure S3, samples were first treated with 150 μM of indicated nucleotides for 10 minute and then with 0.3 μM 2-ad-BAD for additional 10 min. All treatments occurred at RT. Samples were then kept in the dark or irradiated for 5 min in the RPR-100 Photochemical Reactor (Rayonet) equipped with 350 nm lamps at 4° C.
(§3) Click Chemistry. 25 μL of each sample was mixed with 5 μL of fatty acid free BSA and SDS to give a final Click reaction concentration of 1 mg/mL and 1%, respectively. Click reactions were started by adding 15 μL of PBS based 3× click reaction mix (final 1× concentrations shown): 100 μM Tris[(1-benzyl-1H-1,2,3triazol-4-yl)methyl]amine (TBTA, Click Chemistry Tools), 1 mM CuSO4, 40 μM tetramethylrhodamine (TAMRA)-azide (Click Chemistry Tools), 1 mM Tris(2-carboxyethyl)phosphine hydrochloride (TCEP, Thermo Fisher) and 5% tert-Butyl alcohol to each sample, and let to proceed for 1 h at RT while gently shaking. Reactions were stopped by adding 4× Laemmli sample buffer and boiling at 95° C. for 5 min.
(§4) In gel fluorescence and staining. Samples were loaded to 10 or 12% SDS-polyacrylamide gels and run until the dye front left the gel. In-gel fluorescence was detected with ChemiDoc XRS+ (Biorad) using Rhodamine filter and then the gels were stained with Coomassie blue or Silver using standard protocols.

PARP-1 [1] = target: T2, PARP-1 (Homo sapiens, UniProt P09874); experiment: Competition labeling of PARP-1 by 2-ad-BAD; assay type: binding; conditions: for block of 2-ad-BAD labeling of PARP-1 by nucleotides: 150 μM nucleotide, 0.3 μM 2-ad-BAD; for dose-dependent block of 2-ad-BAD labeling of PARP-1: competitor dose series
T2 construct: Full length His6-PARP-1 and His6-SUMO-PARP-10 proteins we expressed and purified; His6 (N); made in house
Description: as §1, §2, §3, §4

Adenylate kinase 1 (AK1) = target: T3, Adenylate kinase 1 (AK1) (Homo sapiens, UniProt P00568); experiment: Labeling of recombinant AK1 by 2-ad-BAD and nucleotide competition; assay type: binding; conditions: 150 μM competitor, 0.3 μM 2-ad-BAD
T3 construct: purchased Novus Biologicals NBP1-50855
T3 sequence (P00568 1-194): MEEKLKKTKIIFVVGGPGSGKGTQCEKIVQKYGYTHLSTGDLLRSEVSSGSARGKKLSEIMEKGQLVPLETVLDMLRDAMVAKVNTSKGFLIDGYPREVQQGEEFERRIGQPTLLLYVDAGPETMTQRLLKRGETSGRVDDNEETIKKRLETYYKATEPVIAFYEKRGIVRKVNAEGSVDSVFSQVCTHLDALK
Experimental: (§5) FIG. 10. Validation of Adenylate kinase 1 (AK1) as a putative NAD^+/NADH binding protein. […] Recombinant AK1 (500 nM) in 100 mM NaCl, 50 mM HEPES [pH 7.4], 4 mM MgCl2, 0.2 mM TCEP was incubated with 150 μM of indicated competitor molecule for 10 min, followed by 10 min treatment with 0.3 μM 2-ad-BAD. Samples were then subjected to UV light for 5 min, conjugated to TAMRA using Click chemistry, separated by SDS-PAGE and in-gel fluorescence was recorded. […] (FIG. 10B) A differential scanning fluorimetry assay is supportive of NADH as novel AK1 ligand. Recombinant AK1 (0.1 mg/mL) in 100 mM NaCl, 50 mM HEPES, pH 7.4, 4 mM MgCl2, 7.5× SYPRO Orange was tested for thermal stability in the absence or presence of indicated nucleotides at 1 mM. Ordinate reports on the difference of melt peak temperature prompted by indicated treatments. Data are mean±SEM of 3 independent experiments.
as §2, §3, §4

squid AK = conditions: cited from earlier work
AK1 [2] = conditions: cited from earlier work
AK1 [3] = target: T4, AK1 (Homo sapiens, UniProt P00568); experiment: Differential scanning fluorimetry (DSF) of AK1; assay type: binding; conditions: nucleotide 1 mM, AK1 0.1 mg/mL
T4 construct: purchased Novus Biologicals NBP1-50855
T4 sequence (P00568 1-194): T3 sequence (P00568 1-194)
Experimental: as §5
Differential scanning fluorimetry was used to detect the AK1-ligand interaction. […] AK1 thermal stability upon treatment with ddH2O, ATP, ADP, NAD^+or NADH, 1 mM each, was measured on Biorad RT-PCR thermocycler using Cal Orange 560 filter. […] The melting temperature (Tm) for each sample was determined by calculating first derivative of the fluorescence (d(RFU)/dT) and shift in thermal stability (ΔTm) was calculated by subtracting vehicle—treated sample Tm from ligand-treated sample Tm.

PARP-1 [4] = target: T2, PARP-1; experiment: In vitro photocrosslinking and click chemistry labeling of PARP-1 (in-gel fluorescence); assay type: binding; conditions: 0.1 μM probe, UV 350 nm 5 min, presence or absence of damaged DNA
Experimental: as §2
Click Chemistry. 25 μL of each sample was mixed with 5 μL of fatty acid free BSA and SDS to give a final Click reaction concentration of 1 mg/mL and 1%, respectively. […]
In gel fluorescence and staining. […] In-gel fluorescence was detected with ChemiDoc XRS+ (Biorad) using Rhodamine filter and then the gels were stained with Coomassie blue or Silver using standard protocols.

T2 sequence (P09874 whole entry): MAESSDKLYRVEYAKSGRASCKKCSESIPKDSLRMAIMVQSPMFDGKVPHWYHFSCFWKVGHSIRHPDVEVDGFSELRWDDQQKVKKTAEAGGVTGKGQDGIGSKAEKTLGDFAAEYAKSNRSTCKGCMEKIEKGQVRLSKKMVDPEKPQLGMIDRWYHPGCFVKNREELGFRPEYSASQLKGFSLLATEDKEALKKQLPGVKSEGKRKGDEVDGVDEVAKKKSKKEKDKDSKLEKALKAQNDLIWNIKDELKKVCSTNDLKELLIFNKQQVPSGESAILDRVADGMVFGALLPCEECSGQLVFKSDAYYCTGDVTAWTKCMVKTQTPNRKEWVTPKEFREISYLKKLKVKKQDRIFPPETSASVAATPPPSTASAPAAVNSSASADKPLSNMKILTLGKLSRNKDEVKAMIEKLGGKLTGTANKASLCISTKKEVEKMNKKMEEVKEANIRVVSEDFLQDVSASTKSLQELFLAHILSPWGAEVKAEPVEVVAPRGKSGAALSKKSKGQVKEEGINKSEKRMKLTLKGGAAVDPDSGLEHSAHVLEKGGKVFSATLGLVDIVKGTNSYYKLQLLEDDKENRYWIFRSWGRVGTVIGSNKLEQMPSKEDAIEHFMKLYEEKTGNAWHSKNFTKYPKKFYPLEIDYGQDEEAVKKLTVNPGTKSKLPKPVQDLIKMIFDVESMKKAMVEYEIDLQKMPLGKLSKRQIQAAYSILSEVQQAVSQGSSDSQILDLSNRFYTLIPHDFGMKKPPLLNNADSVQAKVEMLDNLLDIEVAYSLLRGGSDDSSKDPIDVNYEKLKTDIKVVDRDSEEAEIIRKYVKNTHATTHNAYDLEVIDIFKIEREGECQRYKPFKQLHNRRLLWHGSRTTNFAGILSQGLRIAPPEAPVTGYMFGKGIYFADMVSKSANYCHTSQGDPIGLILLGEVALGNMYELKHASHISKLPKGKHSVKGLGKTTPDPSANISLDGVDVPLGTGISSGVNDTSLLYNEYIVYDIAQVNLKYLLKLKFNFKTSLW

Row | SMILES | block of 2-ad-BAD labeling of PARP-10 by nucleotides (PARP-10) | block of 2-ad-BAD labeling of PARP-1 by nucleotides (PARP-1 [1]) | competition of 2-ad-BAD labeling of recombinant AK1 (Adenylate kinase 1 (AK1)) | other results
1 | Nc1ncnc2c1ncn2[C@@H]1O[C@H](COP(=O)(O)OP(=O)(O)O)[C@@H](O)[C@H]1O [ADP] | did not block | did not block | – | –
2 | Nc1ncnc2c1ncn2[C@@H]1O[C@H](COP(=O)(O)OP(=O)(O)OC[C@H]2OC(O)[C@H](O)[C@@H]2O)[C@@H](O)[C@H]1O (stereo partly shown) [ADPr, ADP-ribose] | did not block | did not block | to a lesser extent | –
3 | Nc1ncnc2c1ncn2[C@@H]1O[C@H](COP(=O)(O)O)[C@@H](O)[C@H]1O [AMP] | – | – | effectively competed | –
4 | Nc1ncnc2c1ncn2[C@@H]1O[C@H](COP(=O)(O)OP(=O)(O)OP(=O)(O)O)[C@@H](O)[C@H]1O [ATP, adenosine triphosphate] | did not block | did not block | effectively competed | –
5 | CC#Cc1ccc2c(=O)[nH]c(CSc3ccc(C(=O)O)cc3)nc2c1C [ITK6] | – | – | – | dose-dependent block of 2-ad-BAD labeling of PARP-10 (PARP-10): blocked the labeling of PARP-10; dose-dependent block of 2-ad-BAD labeling of PARP-1 (PARP-1 [1]): did not block the labeling of PARP-1
6 | NC(=O)C1=CN([C@@H]2O[C@H](COP(=O)(O)OP(=O)(O)OC[C@H]3O[C@@H](n4cnc5c(N)ncnc54)[C@H](O)[C@@H]3O)[C@@H](O)[C@H]2O)C=CC1 [NADH] | reduced | reduced | effectively competed | mode of inhibition of squid AK (squid AK): non-competitive inhibitor; inhibition of AK1 activity (AK1 [2]): competitively inhibited; shift in AK1 thermal stabilization (ΔTm) compared to vehicle control (AK1 [3]): caused a shift in AK1 thermal stabilization; also recorded: showed a thermal shift similar to ATP and ADP
7 | NC(=O)c1ccc[n+]([C@@H]2O[C@H](COP(=O)([O-])OP(=O)(O)OC[C@H]3O[C@@H](n4cnc5c(N)ncnc54)[C@H](O)[C@@H]3O)[C@@H](O)[C@H]2O)c1 [NAD^+, Nicotinamide adenine dinucleotide] | reduced | reduced | to a lesser extent | inhibition of AK1 activity (AK1 [2]): competitively inhibited; shift in AK1 thermal stabilization (ΔTm) compared to vehicle control (AK1 [3]): caused a shift in AK1 thermal stabilization
8 | NC(=O)c1cc(F)cc2c1C(=O)N(C1CCN(C3CCC(F)(F)CC3)CC1)C2 [NMS-P118, 2-[1-(4,4-Difluorocyclohexyl)Piperidin-4-Yl]-6-Fluoro-3-Oxo-2,3-Dihydro-1H-Isoindole-4-Carboxamide] | – | – | – | dose-dependent block of 2-ad-BAD labeling of PARP-10 (PARP-10): did not block the labeling of PARP-10; dose-dependent block of 2-ad-BAD labeling of PARP-1 (PARP-1 [1]): blocked the labeling of PARP-1
9 | C#CCCC1(CCOC(=O)N2CCN(C(=O)c3cc(Cc4n[nH]c(=O)c5ccccc45)ccc3F)CC2)N=N1 [ad-olaparib, 2-(3-(but-3-yn-1-yl)-3H-diazirin-3-yl)ethyl 4-(2-fluoro-5-((4-oxo-3,4-dihydrophthalazin-1-yl)methyl)benzoyl) piperazine-1-carboxylate] | – | – | – | UV-dependent labeling of PARP-1, dependence on damaged DNA (PARP-1 [4]): labels PARP-1 independent of PARP-1 binding to damaged DNA
